From BigSolDB 2.1

CC(=CC(C)=Nc1c(C)cccc1C)Nc1c(C)cccc1C
solubility (mole fraction)
Details	273.15 K	278.15 K	283.15 K	288.15 K	293.15 K	298.15 K	303.15 K
in THF	0.345	0.362	0.381	0.403	0.429	0.456	0.487
in diethyl ether	0.188	0.204	0.22	0.239	0.265	0.295	0.334
in ethanol	0.0093	0.0099	0.0107	0.0117	0.0129	0.0143	0.0166
in methanol	0.0015	0.0017	0.002	0.0024	0.0029	0.0033	0.0041
in n-hexane	0.167	0.194	0.223	0.253	0.285	0.316	0.347
in toluene	0.266	0.296	0.324	0.347	0.374	0.433	0.503
